# Paper PMC7550284, “The functional cooperation of 5-HT1A and mGlu4R in HEK-293 cell line” (Pharmacological Reports, 2020)
# Tests used:
# 5-HT1A receptor [1] = biological target: T1, 5-HT1A receptor (Homo sapiens, UniProt P08908); experiment: Forskolin-induced cAMP accumulation in T-REx 293 cells expressing both 5-HT1A-HALO and mGlu4R-SNAP, 5-HT1A agonist response; assay type: cell-based; conditions: +Tet
# T1 construct: expressed in transfected cells
# T1 sequence (P08908 1-422): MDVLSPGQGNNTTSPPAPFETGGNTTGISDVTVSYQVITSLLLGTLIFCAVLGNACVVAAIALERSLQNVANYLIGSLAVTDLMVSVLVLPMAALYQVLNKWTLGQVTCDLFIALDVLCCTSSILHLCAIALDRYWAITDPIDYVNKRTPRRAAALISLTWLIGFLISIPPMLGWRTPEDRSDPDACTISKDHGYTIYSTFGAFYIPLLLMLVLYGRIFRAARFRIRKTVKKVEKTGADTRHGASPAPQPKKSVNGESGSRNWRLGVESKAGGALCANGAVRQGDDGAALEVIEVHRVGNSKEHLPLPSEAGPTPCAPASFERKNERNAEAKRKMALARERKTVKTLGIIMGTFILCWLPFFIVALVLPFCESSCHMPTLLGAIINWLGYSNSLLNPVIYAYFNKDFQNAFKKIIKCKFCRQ
# Protocol: (§1) The cell line was maintained in DMEM medium supplemented with 10% FBS (tetracycline free), 2 mM Glutamax I (Lonza,), 100 µg/mL Zeocin and 10 µg/mL blasticidin (Invitrogen). T-REx 293 cells were treated with a mixture of plasmids (0.1 µg pTet-SNAP-GRM4 and 0.9 µg pOG44) and GeneJuice transfection reagent according to the manufacturer’s instructions (Novagen). After 48 h, selection for the stably integrated plasmid with 100 µg/mL hygromycin B (Invitrogen) began. In parallel experiments, the HALO-5-HT1A plasmid was introduced into T-REx 293 cells or cells with the inducible expression of SNAP-GRM4 to generate a cell line that expressed both receptors. In the double expression system (as well as in other experiments), 5-HT1A was stably expressed, and mGlu4R expression was induced by tetracycline treatment (+ Tet; 0.75 µg/mL) (Fig. S3). One additional cell line was generated by cloning the 5-HT1A insert (BamHI/XhoI) into the pSNAPf vector ([…]).
# (§2) Each experiment was performed three times (n = 3), and each data point was in triplicate. The curves for the data shown were fitted to a three-parameter logistic equation, allowing for the determination of IC50 values and Emax. For comparison of IC50 between the curves, t test was applied. The ONE way ANOVA and Tukey’s post hoc test were used for in vitro receptor interaction assays statistics.
# mGlu4R [2] = experiment: Forskolin-induced cAMP accumulation in T-REx 293 cells expressing both 5-HT1A-HALO and mGlu4R-SNAP, L-glutamate response; assay type: cell-based, human; conditions: without tetracycline induction (−Tet); curve parameters impossible to determine
# Protocol: as §1, §2
# mGlu4R [3] = biological target: T2, mGlu4R (Homo sapiens, UniProt Q14833); experiment: as above; assay type: cell-based; conditions: SSZ 100 μM; +Tet
# T2 construct: expressed in transfected cells
# T2 sequence (Q14833 33-912): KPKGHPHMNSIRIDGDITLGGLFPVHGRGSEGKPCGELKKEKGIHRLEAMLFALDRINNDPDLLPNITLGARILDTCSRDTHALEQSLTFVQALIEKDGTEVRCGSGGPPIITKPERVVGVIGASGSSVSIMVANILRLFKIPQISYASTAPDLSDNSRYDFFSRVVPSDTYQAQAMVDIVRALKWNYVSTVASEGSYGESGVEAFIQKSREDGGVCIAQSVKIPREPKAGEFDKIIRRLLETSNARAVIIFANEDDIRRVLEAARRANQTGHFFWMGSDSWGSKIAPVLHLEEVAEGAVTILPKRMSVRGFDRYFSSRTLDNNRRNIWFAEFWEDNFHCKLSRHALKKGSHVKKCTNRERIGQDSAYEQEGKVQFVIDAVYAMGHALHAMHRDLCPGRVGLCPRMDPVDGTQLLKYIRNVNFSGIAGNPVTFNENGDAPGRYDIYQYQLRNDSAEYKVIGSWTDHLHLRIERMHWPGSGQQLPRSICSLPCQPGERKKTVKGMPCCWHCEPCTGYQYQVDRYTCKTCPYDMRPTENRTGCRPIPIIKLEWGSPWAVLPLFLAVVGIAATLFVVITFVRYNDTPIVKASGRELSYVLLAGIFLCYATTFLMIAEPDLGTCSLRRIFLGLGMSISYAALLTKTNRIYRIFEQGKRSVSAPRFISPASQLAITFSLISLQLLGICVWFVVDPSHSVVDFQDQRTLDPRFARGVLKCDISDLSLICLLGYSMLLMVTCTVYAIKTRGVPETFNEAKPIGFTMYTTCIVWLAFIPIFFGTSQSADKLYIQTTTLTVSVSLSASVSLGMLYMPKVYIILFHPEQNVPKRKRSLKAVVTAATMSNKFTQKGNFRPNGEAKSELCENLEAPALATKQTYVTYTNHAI
# Protocol: as §1, §2
# [4] = biological target: T3, hmGlu4 receptor homodimer (Homo sapiens, UniProt Q14833); experiment: HTRF-FRET receptor interaction assay, mGlu4-SNAP homodimers (Snap-Tb/Snap-Green); assay type: cell-based; conditions: in presence of L-glutamate; VU0155041 10 μM, LY341495 100 µM
# T3 construct: expressed in transfected cells
# T3 sequence (Q14833 33-912): as above
# Protocol: The intermolecular interaction was presented as a ratio (FRET/Snap-Tb) x10e^4.
# A homogenous time-resolved FRET assay was used to analyze the interaction between receptors labeled with Snap-Tb and Snap-green. For each experiment, a group named “mix cells” (1:1) was added, which corresponded to a mixture of cells separately labeled with one substrate depending on the experimental procedure and mixed immediately before FRET measurement.
# 5-HT1A receptor [5] = biological target: T1, 5-HT1A receptor; experiment: Forskolin-induced cAMP accumulation (HTRF) in T-REx-293-h5-HT1A-SNAP cells; assay type: cell-based; conditions: cAMP assay, Fig. 1b
# Protocol: as §1, §2
structure (smiles),measurement,setting,value
"CCCN(CCC)[C@@H]1CCc2cccc(O)c2C1 [(R)-(+)-8-OH DPAT, (R)-(+)-8-hydroxy-DPAT]",Effect on forskolin-stimulated cAMP accumulation after induction of mGlu4 receptor expression,5-HT1A receptor [1],abolished
N[C@@H](CCC(=O)O)C(=O)O [L-glutamate],Effect on forskolin-induced cAMP accumulation without induction of mGlu4 receptor expression,mGlu4R [2],not effective
"O=C(O)c1cc(/N=N/c2ccc(S(=O)(=O)Nc3ccccn3)cc2)ccc1O [Sulfasalazine, sulfasalazine]",Effect of sulfasalazine treatment on the dose–response curve of glutamate,mGlu4R [3],shifted the dose–response curve of glutamate to the left
same,Effect of sulfasalazine treatment on 5-HT1A activity in presence of mGlu4 receptors,"5-HT1A receptor [1]; SSZ 100 μM, versus cells without SSZ",significantly enhanced
O=C(Nc1cc(Cl)cc(Cl)c1)[C@H]1CCCC[C@H]1C(=O)O [VU0155041],Effect on FRET signal / interaction between mGluR4 monomers,[4],enhanced interaction
COc1ccccc1N1CCN(CC(C(=O)NC(C)(C)C)c2ccccc2)CC1 (stereo not drawn) [WAY100135],Effect of antagonist on the agonist (R)-(+)-8-OH DPAT Emax,5-HT1A receptor [5],totally abolished
